Measured values: patent publication US8796330B2, “Inhibitors of histone deacetylase and prodrugs thereof” (Methylgene Inc., priority 2006, dated 2014)
Converted amounts (≈) assume the structure as drawn. Where two headings read alike, the source gives them in different places.

How the values were obtained:
[1] = tested on: histone deacetylase in nuclear extracts from H446 cells (pooled HDACs); assay: Inhibition of histone deacetylase in H446 nuclear extracts ([3H]-acetylated histone substrate); assay type: biochemical, human; conditions: H446 nuclear extract
[2] = tested on: acetylated histone H-4 in T24 human bladder cancer cells; assay: Histone H4 acetylation in whole cells by immunoblots; assay type: cell-based; conditions: T-24, read-out: EC50, concentration effective for increasing the acetylated H-4 signal by 50%, 16 hours incubation, immunoblot densitometry
Experimental: T24 human bladder cancer cells growing in culture are incubated with HDAC inhibitors for 16 hours. […] of total histone protein are loaded onto SDS/PAGE and transferred to nitrocellulose membranes. Membranes are probed with polyclonal antibodies specific for acetylated histone H-4 (Upstate Biotech Inc.), followed by horse radish peroxidase conjugated secondary antibodies (Sigma). Enhanced Chemiluminescence (ECL) (Amersham) detection is performed using Kodak films (Eastman Kodak). Acetylated H-4 signal is quantified by densitometry.

[3] = target: recombinant human HDAC-1 enzyme (rHDAC-1) (Homo sapiens (Human), UniProt Q13547); assay: Inhibition of recombinant human HDAC-1 ([3H]-acetylated histone substrate); assay type: biochemical; conditions: Table 4, recombinant human HDAC-1
Solubility = assay type: physicochemical
rHDAC-8 = rHDAC-8 (Homo sapiens (Human), UniProt Q9BY41); assay: Fluorogenic Boc-Lys(Ac)-AMC deacetylase assay (Table 4a), rHDAC-8; assay type: biochemical; conditions: for IC50: Boc-Lys(Ac)-AMC substrate, PI values = IC50 at maximum % inhibition reached; for rHDAC-8 partial inhibition (maximum % inhibition reached): PI = 100% inhibition not reached
Experimental: (§1) Alternatively (Table 4a), the following protocol is used to assay the compounds of the invention. In the assay, the buffer used is 25 mM HEPES, pH 8.0, 137 mM NaCl, 2.7 mM KCl, 1 mM MgCl2 and the substrate is Boc-Lys(Ac)-AMC in a 50 mM stock solution in DMSO. The enzyme stock solution is 4.08 μg/mL in buffer. The compounds are pre-incubated (2 μl in DMSO diluted to 13 μl in buffer for transfer to assay plate) with enzyme (20 μl of 4.08 μg/ml) for 10 minutes at room temperature (35 μl pre-incubation volume). The mixture is pre-incubated for 5 minutes at room temperature. The reaction is started by bringing the temperature to 37° C. and adding […] substrate. Total reaction volume is 50 μl. […] A plate is incubated in the dark for 10 minutes at room temperature before reading (λEx=360 nm, λEm=470 nm, Cutoff filter at 435 nm).

rHDAC-1 = rHDAC-1 (Homo sapiens (Human), UniProt Q13547); assay: Fluorogenic Boc-Lys(Ac)-AMC deacetylase assay (Table 4a), rHDAC-1; assay type: biochemical; conditions: for IC50: Boc-Lys(Ac)-AMC substrate, PI values = IC50 at maximum % inhibition reached; for rHDAC-1 partial inhibition (maximum % inhibition reached): PI = 100% inhibition not reached
Experimental: as §1

[4] = Milli-Q purified water, read-out: Solubility Water
[5] = pH 2, simulated gastric fluid, read-out: Solubility pH 2

Sequence of rHDAC-1 (Q13547 whole entry): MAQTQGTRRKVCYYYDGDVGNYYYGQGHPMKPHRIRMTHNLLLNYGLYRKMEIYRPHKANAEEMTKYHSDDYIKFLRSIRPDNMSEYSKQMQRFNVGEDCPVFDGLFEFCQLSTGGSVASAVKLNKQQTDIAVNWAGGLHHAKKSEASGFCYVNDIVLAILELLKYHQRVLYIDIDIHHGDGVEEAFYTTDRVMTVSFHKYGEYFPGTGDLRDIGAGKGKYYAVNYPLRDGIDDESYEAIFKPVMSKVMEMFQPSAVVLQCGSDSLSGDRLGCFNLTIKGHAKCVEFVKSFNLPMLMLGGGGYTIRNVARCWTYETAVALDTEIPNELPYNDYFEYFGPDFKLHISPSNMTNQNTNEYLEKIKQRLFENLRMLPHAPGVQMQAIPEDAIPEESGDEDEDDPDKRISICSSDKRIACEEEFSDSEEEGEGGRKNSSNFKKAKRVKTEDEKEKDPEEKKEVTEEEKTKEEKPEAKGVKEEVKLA
Sequence of recombinant human HDAC-1 enzyme (rHDAC-1) (Q13547 whole entry): as above
Sequence of rHDAC-8 (Q9BY41 whole entry): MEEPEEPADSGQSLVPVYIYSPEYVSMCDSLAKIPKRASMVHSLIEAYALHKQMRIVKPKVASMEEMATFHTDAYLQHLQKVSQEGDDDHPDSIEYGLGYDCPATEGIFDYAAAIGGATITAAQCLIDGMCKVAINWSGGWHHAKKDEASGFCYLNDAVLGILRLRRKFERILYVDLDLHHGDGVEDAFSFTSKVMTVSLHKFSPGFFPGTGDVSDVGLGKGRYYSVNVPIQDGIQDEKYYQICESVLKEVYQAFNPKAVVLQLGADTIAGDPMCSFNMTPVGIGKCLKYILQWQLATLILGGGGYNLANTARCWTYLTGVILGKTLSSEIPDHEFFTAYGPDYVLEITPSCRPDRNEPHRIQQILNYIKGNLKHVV

**Q.** With O=C(/C=C/c1ccc(NS(=O)(=O)c2ccccc2)cc1)NO [Compound 36, N-Hydroxy-3-[4-(benzenesulfonylamino)-phenyl]-2-propenamide] as the molecule, how does the IC50 [1] read?
**A.** Its IC50 is 0.5 µM.

**Q.** And the EC50 [2]?
**A.** The EC50 was 5 µM.

**Q.** Which IC50 [1] does the source give for COc1ccc(S(=O)(=O)Nc2ccc(/C=C/C(=O)NO)cc2)cc1OC [Compound 90] here?
**A.** Its IC50 is 0.4 µM.

**Q.** And the EC50 [2]?
**A.** Its EC50 is 1 µM.

**Q.** What does the source list for Nc1ccccc1NC(=O)/C=C/c1ccc(NS(=O)(=O)c2cccc3ccccc23)cc1 [Compound 107]?
**A.** pooled HDACs percent inhibition ([1]; @ 1 μM): 0% @ 1 μM; IC50 [3]: 5 µM; EC50 [2]: 5 µM

**Q.** With O=C(/C=C/c1ccc(NS(=O)(=O)c2ccc(Cl)c(Cl)c2)cc1)NO [Compound 109] as the molecule, how does the “pooled HDACs percent inhibition” value ([1]; @ 1 μM) read?
**A.** Its value is 32% @ 1 μM.

**Q.** What about the IC50 [3] of the same molecule?
**A.** The IC50 was 0.12 µM.

**Q.** With CC(C)c1cc(C(C)C)c(S(=O)(=O)Nc2ccc(/C=C/C(=O)NO)cc2)c(C(C)C)c1 [Compound 110] as the molecule, how does the IC50 [1] read?
**A.** Its IC50 is 0.7 µM.

**Q.** And the IC50 [3]?
**A.** Its IC50 is 0.55 µM.

**Q.** What does the source list for O=C(/C=C/c1ccc(NS(=O)(=O)c2cc(Cl)cc(Cl)c2O)cc1)NO [Compound 111]?
**A.** IC50 [1]: 0.4 µM; IC50 [3]: 0.095 µM

**Q.** Which results are given for COc1ccc(S(=O)(=O)Nc2ccc(/C=C/C(=O)NO)cc2)cc1 [Compound 113]?
**A.** pooled HDACs percent inhibition ([1]; @ 1 μM): 46% @ 1 μM; IC50 [3]: 0.2 µM

**Q.** Which IC50 [1] does the source give for O=C(/C=C/c1ccc(NS(=O)(=O)c2ccc(-c3ccccc3)cc2)cc1)NO [Compound 120] here?
**A.** Its IC50 is 0.12 µM.

**Q.** What about the IC50 [3] of the same molecule?
**A.** Its IC50 is 0.01 µM.

**Q.** And the EC50 [2]?
**A.** Its EC50 is 1 µM.

**Q.** Which EC50 [2] does the source give for COc1ccc(S(=O)(=O)Nc2ccc(/C=C/C(=O)Nc3ccccc3N)cc2)cc1 [Compound 122] here?
**A.** Its EC50 is 2 µM.

**Q.** With CC(C)(N)C(=O)ONC(=O)Cc1ccc(CCCCc2ccccc2)cc1.Cl [Compound 174f, N-(2-amino-2-methylpropanoyloxy)-2-(4-(4-phenylbutyl)phenyl)acetamide hydrochloride] as the molecule, how does the solubility (Solubility; [4]) read?
**A.** The solubility was 5 µM.

**Q.** What about the solubility (Solubility; [5]) of the same molecule?
**A.** The solubility was 4 µM.

**Q.** What does the source list for Cl.NCC1(C(=O)ONC(=O)Cc2ccc(CCCCc3ccccc3)cc2)CC1 [Compound 174g, N-(1-(aminomethyl)cyclopropanecarbonyloxy)-2-(4-(4-phenylbutyl)phenyl)acetamide hydrochloride]?
**A.** solubility (Solubility; [4]): 195 µM; solubility (Solubility; [5]): 132 µM

**Q.** With Nc1ccccc1NC(=O)c1ccc(CC(=O)c2ccccc2)o1 [Compound 178] as the molecule, how does the “pooled HDACs percent inhibition” value ([1]; @ 20 μM) read?
**A.** The value was 2% @ 20 μM.

**Q.** And the IC50 [3]?
**A.** The IC50 was over 20 µM.

**Q.** For O=C(Cc1ccc(CCCCc2cc(F)c(F)cc2F)cc1)NO [Compound 179, N-hydroxy-2-(4-(4-(2,4,5-trifluorophenyl)butyl)phenyl)acetamide], which IC50 (rHDAC-8) is on record?
**A.** Its IC50 is 0.53 µM.

**Q.** And the IC50 (rHDAC-1)?
**A.** Its IC50 is 0.5 µM.

**Q.** Which results are given for O=C(Cc1ccc(CCCCc2ccc(C(F)(F)F)cc2)cc1)NO [Compound 182, N-hydroxy-2-(4-(4-(4-(trifluoromethyl)phenyl)butyl)phenyl)acetamide]?
**A.** IC50 (rHDAC-8): 1.3 µM; rHDAC-8 partial inhibition (maximum % inhibition reached) (rHDAC-8): 74%; IC50 (rHDAC-1): 0.7 µM; rHDAC-1 partial inhibition (maximum % inhibition reached) (rHDAC-1): 64%

**Q.** With O=C(Cc1ccc(CCCCc2ccc3[nH]ccc3c2)cc1)NO [Compound 183, 2-(4-(4-(1H-indol-5-yl)butyl)phenyl)-N-hydroxyacetamide] as the molecule, how does the IC50 (rHDAC-8) read?
**A.** The IC50 was 0.41 µM.

**Q.** What about the IC50 (rHDAC-1) of the same molecule?
**A.** The IC50 was 0.38 µM.

**Q.** Which IC50 (rHDAC-8) does the source give for O=C(Cc1ccc(CCCCc2cccc(C(F)(F)F)c2)cc1)NO [Compound 184, N-hydroxy-2-(4-(4-(3-(trifluoromethyl)phenyl)butyl)phenyl)acetamide] here?
**A.** Its IC50 is 0.4 µM.

**Q.** And the “rHDAC-8 partial inhibition (maximum % inhibition reached)” value (rHDAC-8)?
**A.** The value was 79%.

**Q.** What about the IC50 (rHDAC-1) of the same molecule?
**A.** The IC50 was 0.93 µM.

**Q.** Which results are given for O=C(Cc1ccc(CCCCc2ccccc2C(F)(F)F)cc1)NO [Compound 185, N-hydroxy-2-(4-(4-(2-(trifluoromethyl)phenyl)butyl)phenyl)acetamide]?
**A.** IC50 (rHDAC-8): 0.61 µM; IC50 (rHDAC-1): 0.84 µM

**Q.** With O=C(Cc1ccc(CCCCc2ccc3c(c2)OCO3)cc1)NO [Compound 187, 2-(4-(4-(benzo[d][1,3]dioxol-5-yl)butyl)phenyl)-N-hydroxyacetamide] as the molecule, how does the IC50 (rHDAC-8) read?
**A.** The IC50 was 0.21 µM.

**Q.** And the IC50 (rHDAC-1)?
**A.** The IC50 was 0.2 µM.

**Q.** What about the “rHDAC-1 partial inhibition (maximum % inhibition reached)” value (rHDAC-1) of the same molecule?
**A.** Its value is 62%.

**Q.** What does the source list for O=C(Cc1ccc(CCCCc2ccccc2)cc1)NO [H]?
**A.** solubility (Solubility; [4]): 3 µM (≈ 0.85 µg/mL); solubility (Solubility; [5]): 3 µM (≈ 0.85 µg/mL)
